The values that follow are results of earlier work, collected in patent publication US20210145844A1, “COMBINATION THERAPY FOR NICOTINE ADDICTION” (Amygdala Neurosciences, Inc., priority 2018, published 2021).

A value given as a limit tells only on which side of the number the result lay.

One data set concerns the target T1, hMAO-A (Homo sapiens, UniProt P21397).
T1 sequence (P21397 1-527): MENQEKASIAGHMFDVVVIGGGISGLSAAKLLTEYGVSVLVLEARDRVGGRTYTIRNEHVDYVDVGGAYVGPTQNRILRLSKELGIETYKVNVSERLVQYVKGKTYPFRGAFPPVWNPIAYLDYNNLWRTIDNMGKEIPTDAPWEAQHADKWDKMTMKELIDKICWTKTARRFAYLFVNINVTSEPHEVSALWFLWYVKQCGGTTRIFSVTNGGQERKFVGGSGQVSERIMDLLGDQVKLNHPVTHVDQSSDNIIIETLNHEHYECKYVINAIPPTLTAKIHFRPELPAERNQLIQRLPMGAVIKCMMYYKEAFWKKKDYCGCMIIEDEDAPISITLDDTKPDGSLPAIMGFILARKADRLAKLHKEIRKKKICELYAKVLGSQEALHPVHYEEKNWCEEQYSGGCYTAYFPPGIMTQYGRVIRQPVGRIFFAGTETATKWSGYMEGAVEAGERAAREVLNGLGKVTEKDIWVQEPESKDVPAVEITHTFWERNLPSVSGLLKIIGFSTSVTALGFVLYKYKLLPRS
Particulars: read-out: IC50 hMAO-A.

A further data set has as its target T2, hMAO-B (Homo sapiens, UniProt P27338).
T2 sequence (P27338 1-520): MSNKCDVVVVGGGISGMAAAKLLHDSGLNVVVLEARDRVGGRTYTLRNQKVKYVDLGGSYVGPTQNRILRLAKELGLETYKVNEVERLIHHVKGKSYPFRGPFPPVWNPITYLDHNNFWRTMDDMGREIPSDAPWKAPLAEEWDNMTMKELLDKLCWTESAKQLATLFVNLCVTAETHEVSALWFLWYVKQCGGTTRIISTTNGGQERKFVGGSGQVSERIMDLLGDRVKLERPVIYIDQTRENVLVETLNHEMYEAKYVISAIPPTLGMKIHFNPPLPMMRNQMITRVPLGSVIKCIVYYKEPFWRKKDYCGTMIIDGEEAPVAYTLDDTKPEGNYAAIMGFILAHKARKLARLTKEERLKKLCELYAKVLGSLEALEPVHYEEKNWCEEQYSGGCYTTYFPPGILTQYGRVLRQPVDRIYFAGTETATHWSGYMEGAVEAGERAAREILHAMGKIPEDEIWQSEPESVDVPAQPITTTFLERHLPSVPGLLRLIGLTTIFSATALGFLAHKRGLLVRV
Particulars: read-out: IC50 hMAO-B.

For data set [1] the following is noted: in vivo.
Another data set has as its target T3, human ALDH-2 enzyme (Homo sapiens, UniProt P05091).
T3 sequence (P05091 18-517): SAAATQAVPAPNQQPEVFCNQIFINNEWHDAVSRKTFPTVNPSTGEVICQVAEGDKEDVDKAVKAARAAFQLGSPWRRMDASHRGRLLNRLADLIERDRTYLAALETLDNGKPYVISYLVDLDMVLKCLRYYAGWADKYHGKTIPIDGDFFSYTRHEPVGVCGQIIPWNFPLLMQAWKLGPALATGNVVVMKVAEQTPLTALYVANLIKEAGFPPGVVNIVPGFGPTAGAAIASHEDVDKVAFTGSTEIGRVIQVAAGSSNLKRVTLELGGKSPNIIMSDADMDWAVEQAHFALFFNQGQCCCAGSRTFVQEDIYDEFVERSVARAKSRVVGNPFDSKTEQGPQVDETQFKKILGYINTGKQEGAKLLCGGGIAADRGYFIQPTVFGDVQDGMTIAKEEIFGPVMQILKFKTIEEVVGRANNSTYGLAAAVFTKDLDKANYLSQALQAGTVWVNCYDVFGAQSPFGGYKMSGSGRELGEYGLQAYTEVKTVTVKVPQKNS
Particulars: read-out: IC50 ALDH-2.

`COCCOc1cc(Cl)c(C(=O)NCc2ccc(-c3cc[nH]c(=O)c3)cc2)c(Cl)c1` [(3), 2,6-dichloro-4-(2-methoxyethoxy)-N-(4-(2-oxo-1,2-dihydropyridin-4-yl)benzyl)benzamide]: the IC50 on hMAO-A and at hMAO-B was above 130 µM each time.

Turning to `O=C(NCc1ccc(-c2cc[nH]c(=O)c2)cc1)c1cccc(F)c1Cl` [(4), 2-chloro-3-fluoro-N-(4-(2-oxo-1,2-dihydropyridin-4-yl)benzyl)benzamide], the half-maximal inhibitory concentration (IC50) at hMAO-A and on hMAO-B was above 130 µM in each case.

As for `Cc1cccc(Cl)c1C(=O)NCc1ccc(-c2cc[nH]c(=O)c2)cc1` [(5), 2-chloro-6-methyl-N-(4-(2-oxo-1,2-dihydropyridin-4-yl)benzyl)benzamide], the IC50 at hMAO-A and at hMAO-B was above 130 µM throughout.

For the compound `Cc1cccc(C)c1C(=O)NCc1ccc(-c2cc[nH]c(=O)c2)cc1` [(6), 2,6-dimethyl-N-(4-(2-oxo-1,2-dihydropyridin-4-yl)benzyl)benzamide], the half-maximal inhibitory concentration (IC50) on hMAO-A and at hMAO-B was above 130 µM each time.

With `Cc1cc(-c2ccc(CNC(=O)c3c(Cl)cccc3Cl)cc2)cc(=O)[nH]1` [(7), 2,6-dichloro-N-[4-(6-methyl-2-oxo-1,2-dihydro-pyridin-4-yl)-benzyl]-benzamide], the IC50 at hMAO-A and on hMAO-B was above 130 µM each time.

Turning to `O=C(NCc1ccc(-c2cc[nH]c(=O)c2)cc1)c1c(F)ccc(F)c1Cl` [(8), 2-chloro-3,6-difluoro-N-(4-(2-oxo-1,2-dihydropyridin-4-yl)benzyl)benzamide], the IC50 at hMAO-A and at hMAO-B was above 130 µM each time.

With `Cc1cc(CNC(=O)c2c(Cl)cccc2Cl)ccc1-c1cc[nH]c(=O)c1` [(9), 2,6-dichloro-N-(3-methyl-4-(2-oxo-1,2-dihydropyridin-4-yl)benzyl)benzamide], the IC50 at hMAO-A and at hMAO-B was above 130 µM throughout.

`Cn1ccc(-c2ccc(CNC(=O)c3c(Cl)cccc3Cl)cc2)cc1=O` [(10), 2,6-dichloro-N-(4-(1-methyl-2-oxo-1,2-dihydropyridin-4-yl)benzyl)benzamide]: the IC50 on hMAO-A and on hMAO-B was above 130 µM each time.

Consider `O=C(NCc1ccc(-c2cc[nH]c(=O)c2)cc1)c1c(F)cccc1F` [(11), 2,6-difluoro-N-(4-(2-oxo-1,2-dihydropyridin-4-yl)benzyl)benzamide], for which the IC50 on hMAO-A and on hMAO-B was above 130 µM throughout.

Regarding `O=C(NCc1ccc(-c2cc[nH]c(=O)c2)cc1)c1c(F)cccc1Cl` [(12), 2-chloro-6-fluoro-N-(4-(2-oxo-1,2-dihydropyridin-4-yl)benzyl)benzamide], the IC50 on hMAO-A and on hMAO-B was above 130 µM in each case.

With `O=C(NCc1ccc(-c2cc[nH]c(=O)c2)cc1F)c1c(Cl)cccc1Cl` [(13), 2,6-dichloro-N-(2-fluoro-4-(2-oxo-1,2-dihydropyridin-4-yl)benzyl)benzamide], the IC50 at hMAO-A and on hMAO-B was above 130 µM each time.

In the case of `O=C(NCc1ccc(-c2cc(=O)[nH]cc2F)cc1)c1c(Cl)cccc1Cl` [(14), 2,6-dichloro-N-(4-(5-fluoro-2-oxo-1,2-dihydropyridin-4-yl)benzyl)benzamide], the IC50 at hMAO-A and on hMAO-B was above 130 µM in each case.

For the compound `O=C(NCc1ccc(-c2cc[nH]c(=O)c2)cc1)c1c(Cl)cccc1Cl` [Compound (1), 2,6-dichloro-N-[4-(2-oxo-1,2-dihydro-pyridin-4-yl)-benzyl]-benzamide], in the data set with rats, the self-administration of nicotine entry is on record as “suppress self-administration of nicotine in rats”. Moreover, the IC50 at hMAO-A and on hMAO-B was above 130 µM in each case. Further, in data set [1], the “intake of cocaine and alcohol” value is “reduce intake of cocaine and alcohol”.

As for `O=C(NCc1ccc(-c2ccn(COP(=O)(O)O)c(=O)c2)cc1)c1c(Cl)cccc1Cl` [Compound (2), phosphoric acid mono-(4-{4-[(2,6-dichloro-benzoylamino)-methyl]-phenyl}-2-oxo-2H-pyridin-1-ylmethyl) ester], the “in vivo metabolism of prodrug” value is given as “undergoes in vivo cleavage of the phosphoric acid group to yield compound (1)”. Moreover, the IC50 (commonly the midpoint of a concentration-inhibition curve) at human ALDH-2 enzyme was above 10 µM. Further, on hMAO-A, the IC50 was above 130 µM. For the same compound, the IC50 on hMAO-B is above 130 µM.

With `O=C(O)C(O)C(O)C(=O)O.c1cnc2cc3c(cc2n1)[C@@H]1CNC[C@H]3C1` [varenicline, 7,8,9,10-tetrahydro-6,10-methano-6H-pyrazino[2,3-h][3]benzazepine], the “varenicline discontinuation due to gastrointestinal side-effects” value in the data set on patients (estimated) was 2%-8%. Moreover, the “incidence of nausea at larger doses” value with patients (larger doses, placebo 10%) was 30%. Further, the “mild nausea, share of patients” value with patients (most common side effect, smoking cessation use) was ~30 % of patients. For the same compound, the “incidence of nausea at smaller doses” value in the data set on patients (smaller doses, placebo 11%) is given as 16%.
